{"source": "ChEMBL document CHEMBL5505979", "about": "“Novel aminothiazoximone-corbelled ethoxycarbonylpyrimidones with antibiofilm activity to conquer Gram-negative bacteria through potential multitargeting effects” (Eur J Med Chem, 2024)", "key": {"Pseudomonas aeruginosa": {"test_system": "Pseudomonas aeruginosa", "test": "Anti-bacterial activity against Pseudomonas aeruginosa ATCC 27853 assessed as inhibition of bacterial growth", "type": "functional", "details": "Pseudomonas aeruginosa, ATCC 27853; read-out: MIC"}, "Escherichia coli [1]": {"test_system": "Escherichia coli", "test": "Induction of membrane disturbance in Escherichia coli ATCC 25922 assessed as increase in fluorescence intensity at 0.5 to 8 times of MIC concentration measured after 90 mins by Propidium iodide assay", "type": "functional, organism-based"}, "Cell membrane [2]": {"test_system": "Cell membrane", "test": "Induction of physical destruction of cell membrane in Escherichia coli ATCC 25922 assessed as leakage of protein at 1/4 to 8 times of MIC concentration by Coomassie blue quantitative assay", "type": "cell membranes"}, "Cell membrane [3]": {"test_system": "Cell membrane", "test": "Induction of physical destruction of cell membrane in Acinetobacter baumannii assessed as leakage of protein at 1/4 to 8 times of MIC concentration by Coomassie blue quantitative assay", "type": "cell membranes"}, "Acinetobacter baumannii [4]": {"test_system": "Acinetobacter baumannii", "test": "Reduction in metabolic activity of Acinetobacter baumannii assessed as biomass of the fluorescent pink change to non-fluorescent blue", "type": "functional, organism-based"}, "Acinetobacter baumannii [5]": {"test_system": "Acinetobacter baumannii", "test": "Anti-bacterial activity against Acinetobacter baumannii assessed as growth inhibition by measuring optical density measured at 2 time of MIC in presence of 1/2 times of MIC of norfloxacin by Checkerboard assay (reference value: 0.155)", "type": "functional"}, "Enterococcus faecalis": {"test_system": "Enterococcus faecalis", "test": "Anti-bacterial activity against Enterococcus faecalis V583 assessed as inhibition of bacterial growth", "type": "functional"}, "Escherichia coli [6]": {"test_system": "Escherichia coli", "test": "Anti-bacterial activity against Escherichia coli ATCC 25922 assessed as growth inhibition by measuring optical density measured at 4 time of MIC in presence of 1/8 times of MIC of norfloxacin by Checkerboard assay (reference value: 0.125)", "type": "functional"}}, "note": "Activity calls are given as the source filed them. The calls are words filed in the database; no cut-off is given here."}
{"smiles": "CCCCc1nc(Cl)c(C2NC(=O)NC(CN3CCN(C(=O)/C(=N/OC)c4csc(N)n4)CC3)=C2C(=O)OCC)[nH]1", "note": "(stereo not drawn)", "values": [{"measurement": "MIC", "setting": "Pseudomonas aeruginosa", "value": 26, "unit": "µM"}, {"measurement": "Activity", "setting": "Escherichia coli [1]", "value": "Active"}, {"measurement": "Activity", "setting": "Cell membrane [2]", "value": "Active"}, {"measurement": "Activity", "setting": "Cell membrane [3]", "value": "Active"}, {"measurement": "Activity", "setting": "Acinetobacter baumannii [4]", "value": "Active"}, {"measurement": "OD", "setting": "Acinetobacter baumannii [5]", "value": 0.05}, {"measurement": "MIC", "setting": "Enterococcus faecalis", "value": 13, "unit": "µM"}, {"measurement": "OD", "setting": "Escherichia coli [6]", "value": 0.108}]}
